One assay concerns A549 cells. Description: cell cycle (BrdU labeling, FACS) and cell morphology. In kind it is cell-based, human. Conditions: for effect on cell cycle / DNA synthesis: FACS: 4 h, TSA 300 nM, tubacin 2 μM. The method, then: Bromodeoxyuridine labeling and fluorescence-activated cell sorting (FACS) were performed as described (K. M. Koeller et al., Chemistry & Biology, 10 (5) (2003) pp. 397-410). […] Samples were rinsed in PBS, trypsinized, and fixed for two hours in 70% ethanol/30% PBS (4° C.). Cells were then washed once in PBS and stored overnight in PBS (4° C.). To measure acetylated tubulin levels, samples were blocked for 45 minutes in ADB, aspirated, and incubated in ADB with anti-acetylated tubulin (1:500) overnight (4° C.). Samples were washed twice in ADB and incubated in ADB with FITC-conjugated anti-mouse IgG (goat; 1:200) for one hour (room temperature). After washing twice in TBS, cells were resuspended in 100 μL of ribonuclease A (100 μg/mL) and incubated for five minutes (37° C.). To measure the DNA content, 400 μL of propidium iodide (50 μg/mL) was added to the samples and incubated for one hour (room temperature). Samples were analyzed using a FACScanII flow cytometer (Becton-Dickinson), at the Dana Farber Cancer Institute, exciting at 488 nm and measuring the acetylated tubulin-linked FITC fluorescence through a 514 nm bandpass filter and the PI fluorescence through a 600 nm wave-length filter. Cell cycle distributions were calculated from 10,000 cells and modeled using ModFit LT (V2.0) software.

In another assay the target is T1, HDAC6F H216A mutant (Homo sapiens, UniProt Q9UBN7, H216A).
T1 construct: made in house; host or cells: TAg Jurkat cells, transient transfection, anti-FLAG M2 immunoprecipitation
T1 sequence (Q9UBN7 1-1215 H216A): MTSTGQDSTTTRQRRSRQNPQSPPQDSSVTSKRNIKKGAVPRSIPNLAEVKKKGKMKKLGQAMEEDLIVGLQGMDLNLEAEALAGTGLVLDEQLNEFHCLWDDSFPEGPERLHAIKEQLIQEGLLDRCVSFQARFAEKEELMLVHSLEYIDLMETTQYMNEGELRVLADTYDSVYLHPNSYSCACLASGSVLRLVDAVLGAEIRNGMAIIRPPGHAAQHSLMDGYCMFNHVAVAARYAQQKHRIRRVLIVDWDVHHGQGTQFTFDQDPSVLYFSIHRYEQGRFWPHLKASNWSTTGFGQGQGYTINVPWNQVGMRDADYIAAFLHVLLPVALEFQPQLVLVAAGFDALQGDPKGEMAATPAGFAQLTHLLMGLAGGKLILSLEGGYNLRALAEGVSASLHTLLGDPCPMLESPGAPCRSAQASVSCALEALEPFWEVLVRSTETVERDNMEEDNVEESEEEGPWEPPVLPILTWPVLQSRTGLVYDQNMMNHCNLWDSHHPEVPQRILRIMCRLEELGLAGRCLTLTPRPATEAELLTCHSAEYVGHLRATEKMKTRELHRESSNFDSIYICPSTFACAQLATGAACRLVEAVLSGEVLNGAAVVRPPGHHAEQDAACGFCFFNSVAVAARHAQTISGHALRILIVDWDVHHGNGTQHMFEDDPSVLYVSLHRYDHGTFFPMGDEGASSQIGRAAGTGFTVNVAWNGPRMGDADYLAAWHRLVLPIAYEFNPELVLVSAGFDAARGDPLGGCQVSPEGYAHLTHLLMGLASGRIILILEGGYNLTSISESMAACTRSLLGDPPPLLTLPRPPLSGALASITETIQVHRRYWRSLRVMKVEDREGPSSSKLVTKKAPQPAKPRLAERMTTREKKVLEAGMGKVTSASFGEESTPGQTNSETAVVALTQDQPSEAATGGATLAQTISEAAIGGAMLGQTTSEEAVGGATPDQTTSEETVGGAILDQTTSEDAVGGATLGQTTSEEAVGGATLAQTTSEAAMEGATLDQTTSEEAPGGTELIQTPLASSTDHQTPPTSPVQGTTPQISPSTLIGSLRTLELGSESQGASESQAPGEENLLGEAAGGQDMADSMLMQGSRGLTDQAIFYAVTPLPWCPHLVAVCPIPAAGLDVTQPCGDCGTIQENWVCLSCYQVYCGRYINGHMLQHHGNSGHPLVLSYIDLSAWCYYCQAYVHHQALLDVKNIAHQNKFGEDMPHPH
Description: in vitro deacetylase assay with [3H]-histones, HDAC6F H216A mutant. Format: biochemical. To be noted: [3H]-labeled histones, n=3. Here is the method: (§1) FLAG-tagged HDAC pBJ5 constructs were transiently transfected by electroporation with 5 μg DNA for expression of recombinant proteins (C. M. Grozinger, C. A. Hassig and S. L. Schreiber, Proc. Natl. Acad. Sci. USA, 27, 4868 (1999); and C. A. Hassig et al., Proc. Natl. Acad. Sci. USA 95, 3519 (1998)]. Cells were mock transfected without DNA or with a non-FLAG-tagged pCMV-LacZ construct as a negative control. Forty-eight hours after transfection recombinant proteins were immunoprecipitated using anti-FLAG M2 agarose affinity gel beads as described [C. A. Hassig et al., Proc. Natl. Acad. Sci. USA 95, 3519 (1998)]. Western blotting using anti-acetylated α-tubulin (1:1000) anti-tubulin (1:1000), and anti-acetylated (K9, K14) histone H3 (1:1000) antibodies was performed using standard methods (K. M. Koeller et al., Chemistry & Biology, 10 (5) (2003) pp. 397-410). […]
(§2) [^3H]Acetate-incorporated histones were isolated from butyrate-treated HeLa cells as described [J. Taunton, C. […] Immunoprecipitates were incubated with acetylated histones and HDAC activity determined by scintillation counting as described [J. Taunton, C. […] After centrifugation, the supernatant (diluted to 0.4 μg tubulin) and α-FLAG M2 agarose affinity gel beads were analyzed by western blotting with an anti-FLAG M2 antibody (1:1750) to ensure equal protein levels.

A further assay addresses T2, HDAC6F H611A mutant (Homo sapiens, UniProt Q9UBN7, H611A).
T2 construct: made in house; host or cells: TAg Jurkat cells, transient transfection, anti-FLAG M2 immunoprecipitation
Description: in vitro deacetylase assay with [3H]-histones, HDAC6F H611A mutant. In kind it is biochemical. Conditions: [3H]-labeled histones, n=3. Here is the method: as §1, §2

“Also recorded” adds a separate entry of the source. Read-outs that look alike come from different tables or passages of the source.

T2 sequence (Q9UBN7 whole entry H611A): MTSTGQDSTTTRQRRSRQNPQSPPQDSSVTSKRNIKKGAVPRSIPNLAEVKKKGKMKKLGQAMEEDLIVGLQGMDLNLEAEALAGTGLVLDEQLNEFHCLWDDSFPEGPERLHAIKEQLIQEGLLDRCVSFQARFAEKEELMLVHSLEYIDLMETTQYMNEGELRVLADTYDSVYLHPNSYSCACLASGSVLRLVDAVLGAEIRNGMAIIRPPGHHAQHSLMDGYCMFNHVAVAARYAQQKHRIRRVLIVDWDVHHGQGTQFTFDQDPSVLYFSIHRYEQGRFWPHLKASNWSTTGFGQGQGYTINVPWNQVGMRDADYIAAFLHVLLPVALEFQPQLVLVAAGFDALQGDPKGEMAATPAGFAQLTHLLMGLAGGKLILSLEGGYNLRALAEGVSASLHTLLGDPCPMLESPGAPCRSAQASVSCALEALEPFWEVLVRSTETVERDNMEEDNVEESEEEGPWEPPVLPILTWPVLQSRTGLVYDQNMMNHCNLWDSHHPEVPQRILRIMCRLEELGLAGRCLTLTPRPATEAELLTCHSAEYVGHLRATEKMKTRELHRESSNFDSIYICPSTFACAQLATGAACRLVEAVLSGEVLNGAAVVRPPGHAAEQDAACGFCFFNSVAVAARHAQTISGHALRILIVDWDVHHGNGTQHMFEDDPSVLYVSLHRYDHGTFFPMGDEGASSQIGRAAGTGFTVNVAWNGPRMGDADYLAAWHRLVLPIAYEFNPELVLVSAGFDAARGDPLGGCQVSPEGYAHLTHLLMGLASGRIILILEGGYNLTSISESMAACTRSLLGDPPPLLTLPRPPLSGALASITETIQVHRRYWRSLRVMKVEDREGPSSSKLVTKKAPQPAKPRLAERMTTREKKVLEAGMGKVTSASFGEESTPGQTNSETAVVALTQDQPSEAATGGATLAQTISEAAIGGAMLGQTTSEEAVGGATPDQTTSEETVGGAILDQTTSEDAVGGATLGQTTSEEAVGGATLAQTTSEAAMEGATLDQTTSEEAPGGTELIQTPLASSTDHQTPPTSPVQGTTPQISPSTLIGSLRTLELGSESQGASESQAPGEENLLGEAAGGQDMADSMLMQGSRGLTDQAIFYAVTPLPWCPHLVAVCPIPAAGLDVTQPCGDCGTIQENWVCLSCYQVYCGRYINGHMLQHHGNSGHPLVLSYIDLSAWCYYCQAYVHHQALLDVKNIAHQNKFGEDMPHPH

Take `CC(/C=C/C(=O)NO)=C\[C@@H](C)C(=O)c1ccc(N(C)C)cc1` [TSA, trichostatin A, reference compound]: the “effect on cell cycle / DNA synthesis” value in the assay with A549 cells is recorded as “marked loss of a BrdU-positive S-phase population”. Also, on HDAC6F H216A mutant, the “inhibition of HDAC activity of HDAC6F H216A mutant” value is given as “only partial inhibited by TSA or tubacin”. The “inhibition of HDAC activity of HDAC6F H611A mutant” value against HDAC6F H611A mutant is “not inhibited by either TSA or tubacin”.

Take `O=C(CCCCCCC(=O)Nc1ccc([C@@H]2OC(c3ccc(CO)cc3)C[C@H](CSc3nc(-c4ccccc4)c(-c4ccccc4)o3)O2)cc1)NO` (stereo partly drawn) [tubacin]: in the assay with A549 cells, the “effect on cell morphology” value is given as “had no overall effect on the morphology of A549 cells” and the “effect on cell cycle / DNA synthesis” value is reported as “No effect of tubacin on DNA synthesis or cell cycle distribution; also recorded: had no such effects”. Also, in the assay with A549 cells (listed as JCWII114), the “effect on cell cycle / DNA synthesis” value is given as “no apparent affect on the cell cycle or on cell morphology” and the “effect on cell morphology” value was “no apparent affect on the cell cycle or on cell morphology”. Moreover, the “inhibition of HDAC activity of HDAC6F H216A mutant” value against HDAC6F H216A mutant is given as “only partial inhibited by TSA or tubacin”. Also, the “inhibition of HDAC activity of HDAC6F H611A mutant” value against HDAC6F H611A mutant is recorded as “not inhibited by either TSA or tubacin”.

For the origin of these results see patent publication US8178579B2, “Dioxanes and uses thereof” (President and Fellows of Harvard College, priority 2001, dated 2012).
